{
  "source": "patent US5880145A",
  "about": "“Class of benzoporphyrin derivative photoactive compounds” (The University of British Columbia, priority 1997, dated 1999)",
  "key": {"[1]": {"tested_on": "M1 (rhabdomyosarcoma) tumor-bearing mice", "test": "Selectivity in vivo: biodistribution (tumor:tissue ratios)", "description": "Mice (normal, healthy and M1-tumor-bearing) were injected intravenously at 4 mg/kg with B3 formulated in aqueous solution containing DMSO. At various times post B3 administration, the animals were sacrificed and B3 content in various tissues was determined in tissue extracts by fluorescence as described above. Biodistribution data of B3 (tumor:tissue ratios) obtained in M1 (rhabdomyosarcoma) tumor-bearing mice were also evaluated at various times. Within the first hour post intravenous administration of 4 mg/kg B3, tumor:tissue ratios for the muscle and skin were 1.5-2.0 and 3.1-3.9, respectively. Lymph nodes gave ratios of 0.7. […] Since this preferential accumulation was observed shortly after B3 administration, this photosensitizer can be activated with light shortly after its injection, which is convenient in clinical use."}, "[2]": {"tested_on": "L1210 cells", "test": "Uptake of B3 by cells in vitro", "format": "cell-based, Murine", "details": "3 μg/ml, 10% serum", "description": "Uptake of B3 by cells in vitro: L1210 cells (5×10^6 /vial) were incubated in the presence of 10% serum with B3 at 3 μg/ml for times up to 100 minutes. At various times during incubation, duplicate vials were pulled out and the cells, following washing, were lysed and the amount of B3 in the extract determined by fluorescence in the presence of 1% Triton X-100."}, "[3]": {"tested_on": "Murine leukemia cells (L1210)", "test": "Photosensitization of cells in vitro (broad spectrum light 9 j/cm^2; MTT cell viability)", "format": "cell-based", "details": "for IC50: Mus musculus, L1210, light or radiation study, 20 h, 1 hour incubation, light 9 j/cm^2, viability 20 hours later, read-out: LD50 (dose causing 50% cell kill)", "description": "Murine leukemia cells (L1210) were incubated in suitable buffer with and without serum in various amounts of the drug B3 for 1 hour. After removal of the drug, the cells were exposed to broad spectrum light at 9 j/cm^2. Cell viability was determined 20 hours later by the MTT colorimetric assay. Results are presented in FIGS. 2A and 2B as % cell kill for cells exposed to light only."}, "[4]": {"test": "Tissue distribution and clearance in vivo", "details": "mice, intravenous 4 mg/kg", "description": "Mice (normal, healthy and M1-tumor-bearing) were injected intravenously at 4 mg/kg with B3 formulated in aqueous solution containing DMSO. At various times post B3 administration, the animals were sacrificed and B3 content in various tissues was determined in tissue extracts by fluorescence as described above."}, "[5]": {"tested_on": "L1210 cells", "test": "Release/retention of B3 by cells in vitro", "format": "cell-based, Murine", "details": "after 1 hour incubation at 3 μg/ml; drug-free medium with 10% serum", "description": "Release/retention of B3 by cells in vitro: L1210 cells were incubated for 1 hour with B3 at 3 μg/ml in the presence of 10% serum, then washed and placed in drug-free medium containing 10% serum. At various times duplicate aliquots were evaluated for cell content of B3 as described above."}, "[6]": {"details": "within first hour post intravenous 4 mg/kg"}},
  "note": "Read-outs that look alike come from different tables or passages of the source.",
  "data": [
    {"smiles": "C=Cc1c(C)c2cc3nc(cc4[nH]c(cc5nc(cc1[nH]2)[C@@]1(C)C5=CC=C(C(=O)O)[C@H]1C(=O)OC)c(C)c4CCC(=O)OC)C(CCC(=O)OC)=C3C", "note": "(relative stereo) [Example B3]", "values": [
      {"measurement": "accumulation in tumor and other rapidly proliferating tissues versus normal tissues (in words)", "setting": "[1]; shortly after intravenous 4 mg/kg", "value": "preferential accumulation of B3 in tumor and other rapidly proliferating tissues (lymph nodes) in contrast to normal, nonproliferating tissues"},
      {"measurement": "tumor:tissue ratio, lymph nodes", "setting": "[1]; [6]", "value": 0.7},
      {"measurement": "tumor:tissue ratio, muscle", "setting": "[1]; [6]", "value": "1.5-2.0"},
      {"measurement": "tumor:tissue ratio, skin", "setting": "[1]; [6]", "value": "3.1-3.9"},
      {"measurement": "time to reach maximum concentrations in cells (uptake)", "setting": "[2]", "value": "≤ 20", "unit": "min"},
      {"measurement": "cellular pharmacokinetics in vitro (in words)", "setting": "[2]; uptake and release, L1210 cells", "value": "very rapid pharmacokinetics in vitro"},
      {"measurement": "IC50", "setting": "[3]; in the absence of 10% serum", "value": 0.007, "unit": "µg/mL"},
      {"measurement": "IC50", "setting": "[3]; in the presence of 10% serum", "value": 0.035, "unit": "µg/mL"},
      {"measurement": "photosensitization of cells (in words)", "setting": "[3]; with and without serum", "value": "very potent photosensitizer of cells and maintains this property in the presence of serum"},
      {"measurement": "pharmacokinetics in vivo (in words)", "setting": "[4]", "value": "very rapid pharmacokinetics in vivo"},
      {"measurement": "time after which drug was cleared from tissues tested", "setting": "[4]; aqueous solution containing DMSO", "value": "about 5 minutes"},
      {"measurement": "time after which release from cells is rapid and almost complete", "setting": "[5]", "value": "~30", "unit": "min"}
    ]}
  ]
}
